Results reported in ChEMBL document CHEMBL1201862, “PubChem BioAssay data set” (2004).
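Five compound concentrations were applied to cells in 96-well plates for 48 hours; endpoints were derived by simple linear interpolation of the resulting dose-response curve. GI50 marks 50% less growth.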 Calls of active or inactive are those of the source. Rule as the data show it: active = GI50 up to about 1.1 µM and inactive = higher.

Assays:
Experiment in all cases: growth of human tumour cells (NCI), 48 h
DMS-114 = system: DMS-114
CCRF-CEM = system: CCRF-CEM
HCC 2998 = system: HCC 2998
IGROV-1 = system: IGROV-1
SF-268 = system: SF-268
SNB-75 = system: SNB-75
A549 = system: A549
A498 = system: A498
KM-20L2 = system: KM-20L2
SN12C = system: SN12C
786-0 = system: 786-0
SF-295 = system: SF-295
KM12 = system: KM12
UACC-257 = system: UACC-257
NCI-H23 = system: NCI-H23
HL-60 = system: HL-60
RPMI-8226 = system: RPMI-8226
OVCAR-5 = system: OVCAR-5
ACHN = system: ACHN
Malme-3M = system: Malme-3M
K562 = system: K562
LOX IMVI = system: LOX IMVI
RXF 393 = system: RXF 393
SW-620 = system: SW-620
MOLT-4 = system: MOLT-4
NCI-H460 = system: NCI-H460
RXF 631 = system: RXF 631
HOP-62 = system: HOP-62
LXFL 529 = system: LXFL 529
NCI-H226 = system: NCI-H226
SK-OV-3 = system: SK-OV-3
SK-MEL-2 = system: SK-MEL-2
HCT-15 = system: HCT-15
M14 = system: M14
EKVX = system: EKVX
M19-MEL = system: M19-MEL
SNB-19 = system: SNB-19
OVCAR-8 = system: OVCAR-8
SK-MEL-5 = system: SK-MEL-5
SNB-78 = system: SNB-78
HOP-18 = system: HOP-18
OVCAR-3 = system: OVCAR-3
COLO 205 = system: COLO 205
UACC-62 = system: UACC-62
UO-31 = system: UO-31
SK-MEL-28 = system: SK-MEL-28
TK-10 = system: TK-10
U-251 = system: U-251
NCI-H522 = system: NCI-H522
SF-539 = system: SF-539
DMS-273 = system: DMS-273
HOP-92 = system: HOP-92
SR = system: SR
HT-29 = system: HT-29
OVCAR-4 = system: OVCAR-4
CAKI-1 = system: CAKI-1
DLD-1 = system: DLD-1
HCT-116 = system: HCT-116

c1ccc(OCCSCCCCCCCCCCSCCOc2ccccc2)cc1
GI50 (DMS-114): > 100 µM (inactive)
GI50 (CCRF-CEM): > 100 µM (inactive)
GI50 (HCC 2998): > 100 µM (inactive)
GI50 (IGROV-1): > 100 µM (inactive)
GI50 (SF-268): > 100 µM (inactive)
GI50 (SNB-75): > 100 µM (inactive)
GI50 (A549): 31.6 µM (inactive)
GI50 (A498): 27.5 µM (inactive)
GI50 (KM-20L2): > 100 µM (inactive)
GI50 (SN12C): > 100 µM (inactive)
GI50 (786-0): 50.4 µM (inactive)
GI50 (SF-295): 30.7 µM (inactive)
GI50 (KM12): > 100 µM (inactive)
GI50 (UACC-257): > 100 µM (inactive)
GI50 (NCI-H23): > 100 µM (inactive)
GI50 (HL-60): > 100 µM (inactive)
GI50 (RPMI-8226): > 100 µM (inactive)
GI50 (OVCAR-5): > 100 µM (inactive)
GI50 (ACHN): 48.1 µM (inactive)
GI50 (Malme-3M): 14.7 µM (inactive)
GI50 (K562): > 100 µM (inactive)
GI50 (LOX IMVI): > 100 µM (inactive)
GI50 (RXF 393): > 100 µM (inactive)
GI50 (SW-620): 54.2 µM (inactive)
GI50 (MOLT-4): > 100 µM (inactive)
GI50 (NCI-H460): 37.8 µM (inactive)
GI50 (RXF 631): > 100 µM (inactive)
GI50 (HOP-62): 24.7 µM (inactive)
GI50 (LXFL 529): > 100 µM (inactive)
GI50 (NCI-H226): > 100 µM (inactive)
GI50 (SK-OV-3): > 100 µM (inactive)
GI50 (SK-MEL-2): > 100 µM (inactive)
GI50 (HCT-15): > 100 µM
GI50 (M14): > 100 µM (inactive)
GI50 (EKVX): 16.9 µM (inactive)
GI50 (M19-MEL): > 100 µM (inactive)
GI50 (SNB-19): > 100 µM (inactive)
GI50 (OVCAR-8): 61.2 µM (inactive)
GI50 (SK-MEL-5): 28.9 µM (inactive)
GI50 (SNB-78): > 100 µM (inactive)
GI50 (HOP-18): > 100 µM (inactive)
GI50 (OVCAR-3): > 100 µM (inactive)
GI50 (COLO 205): > 100 µM (inactive)
GI50 (UACC-62): > 100 µM (inactive)
GI50 (UO-31): 65.3 µM (inactive)
GI50 (SK-MEL-28): > 100 µM (inactive)
GI50 (TK-10): 16.9 µM (inactive)
GI50 (U-251): 74.3 µM (inactive)
GI50 (NCI-H522): > 100 µM (inactive)
GI50 (SF-539): > 100 µM (inactive)

O=C(Nc1ccccc1)O/N=C1/CCCC/C1=C\c1ccccc1
GI50 (DMS-273): 15.9 µM (inactive)
GI50 (DMS-114): 12 µM (inactive)
GI50 (CCRF-CEM): 10.7 µM (inactive)
GI50 (HCC 2998): 20.6 µM (inactive)
GI50 (IGROV-1): 3.55 µM (inactive)
GI50 (SF-268): 15.6 µM (inactive)
GI50 (HOP-92): 22.9 µM (inactive)
GI50 (SNB-75): 13.9 µM (inactive)
GI50 (A498): 23.2 µM (inactive)
GI50 (KM-20L2): 19.6 µM (inactive)
GI50 (SN12C): 16.3 µM (inactive)
GI50 (786-0): 16.7 µM (inactive)
GI50 (SF-295): 16.1 µM (inactive)
GI50 (UACC-257): 19.5 µM (inactive)
GI50 (NCI-H23): 26 µM (inactive)
GI50 (RPMI-8226): 16.5 µM (inactive)
GI50 (OVCAR-5): 26.2 µM (inactive)
GI50 (ACHN): 16.4 µM (inactive)
GI50 (K562): 10 µM (inactive)
GI50 (LOX IMVI): 18.9 µM (inactive)
GI50 (RXF 393): 16.3 µM (inactive)
GI50 (SW-620): 16.3 µM (inactive)
GI50 (SR): 16.1 µM (inactive)
GI50 (MOLT-4): 5.53 µM (inactive)
GI50 (HT-29): 28.2 µM (inactive)
GI50 (NCI-H460): 15.1 µM (inactive)
GI50 (OVCAR-4): 14.8 µM (inactive)
GI50 (RXF 631): 18.3 µM (inactive)
GI50 (HOP-62): 21.9 µM (inactive)
GI50 (LXFL 529): 8.49 µM (inactive)
GI50 (NCI-H226): 24.9 µM (inactive)
GI50 (SK-OV-3): 20.3 µM (inactive)
GI50 (CAKI-1): 15.7 µM (inactive)
GI50 (DLD-1): 14.6 µM (inactive)
GI50 (SK-MEL-2): 15 µM (inactive)
GI50 (HCT-15): 11.3 µM
GI50 (M14): 17.8 µM (inactive)
GI50 (M19-MEL): 18.1 µM (inactive)
GI50 (OVCAR-8): 18.1 µM (inactive)
GI50 (SK-MEL-5): 13 µM (inactive)
GI50 (SNB-78): 12.4 µM (inactive)
GI50 (HOP-18): 13.7 µM (inactive)
GI50 (OVCAR-3): 15.2 µM (inactive)
GI50 (COLO 205): 14.5 µM (inactive)
GI50 (UACC-62): 15.7 µM (inactive)
GI50 (HCT-116): 13.7 µM (inactive)
GI50 (UO-31): 13.2 µM (inactive)
GI50 (SK-MEL-28): 17.6 µM (inactive)
GI50 (TK-10): 17.9 µM (inactive)
GI50 (U-251): 16.2 µM (inactive)
GI50 (NCI-H522): 16.4 µM (inactive)
GI50 (SF-539): 17.7 µM (inactive)
